# Test results: US6599917B1, “Quinuclidine compounds and drugs containing the same as the active ingredient” (priority 1999, dated 2003)
# Experiments:
# [1] = target: T1, squalene synthesizing enzyme (Rattus norvegicus, UniProt Q02769); assay: Measurement of squalene synthesizing enzyme inhibitive activity by using a rat liver microsome; type: biochemical; settings: [3H]-farnesylpyrophosphoric acid
# T1 construct: The liver was excised from a male Spraugue-Dawly rat; from tissue; host or cells: liver microsome fraction of male Sprague-Dawley rat (8 to 9 weeks)
# T1 sequence (Q02769 1-416): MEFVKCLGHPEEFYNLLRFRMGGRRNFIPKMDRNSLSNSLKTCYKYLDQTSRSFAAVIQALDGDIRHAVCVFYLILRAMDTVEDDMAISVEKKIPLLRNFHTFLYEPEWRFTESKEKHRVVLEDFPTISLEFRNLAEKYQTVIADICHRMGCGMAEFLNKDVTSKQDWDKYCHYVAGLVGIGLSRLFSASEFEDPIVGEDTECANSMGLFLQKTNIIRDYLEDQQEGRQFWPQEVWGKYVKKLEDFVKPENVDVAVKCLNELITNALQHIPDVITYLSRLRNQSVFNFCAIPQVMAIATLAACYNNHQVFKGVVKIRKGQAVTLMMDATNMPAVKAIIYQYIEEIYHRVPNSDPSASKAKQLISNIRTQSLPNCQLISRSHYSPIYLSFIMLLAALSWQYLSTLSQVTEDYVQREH
# Procedure: Measurement of Squalene Synthesizing Enzyme Inhibitive Activity by Using a Rat Liver Microsome
# (I) The reaction was run on a scale of 500 μ1. 200 µl of a solution containing 125 mM tris-hydrochloric acid (pH: 7.3), 2.5 mM magnesium chloride, 5 mM potassium fluoride and 10 mM reduction type nicotinamidoadenine dinucleotide phosphoric acid, 100 µl of the specimen solution with a 5-fold concentration, 100 µl of distilled water and 50 µl of 0.4 to 1 mg/ml rat liver microsome prepared by the following method were mixed.
# (II) The above mixture was pre-incubated at 37° C. for 10 minutes and thereafter, 50 µl of 100 μM [^3H]-farnesylpyrophosphoric acid (30 mCi/mmol, NEN) was added to the mixture to start a reaction. The reaction was continued at 37° C. for 10 minutes. 1 ml of ethanol was added to the resulting mixture to terminate the reaction and then 1 ml of distilled water and 3 ml of petroleum ether were added to the reaction solution, which was then shaken for 30 minutes. The water phase was separated from the oil phase, the water phase was frozen at −70° C. in dry ice/methanol and the radiative activity of the organic phase was measured using a liquid scintillator. Or the organic phase was evaporated to dryness using nitrogen gas and the residue was dissolved as a marker in 25 µl of chloroform containing squalene, farnesol and cholesterol. This sample was spotted on a TCL plate (Merck) and developed using heptane for 15 to 20 minutes. A band of squalene was cut from the plate to measure the radiative activity by using a liquid scintillation counter. The data was expressed by a concentration (IC50) at which 50% of the radiative activity of a control group was inhibited.
# Method of the Preparation of a Rat Liver Microsome
# The following operations were all carried out on ice and the centrifugation was performed at 4° C. The liver was excised from a male Spraugue-Dawly rat (hereinafter referred to as SD rat) (8 to 9 weeks age) and perfused with 1.15% potassium chloride to remove the blood. Then, the liver was minced using a forceps and the minced liver was homogenized using a Teflon homogenizer. The resulting sample was centrifuged at 16000×g twice for 15 minutes. The supernatant was further centrifuged at 105000×g for 60 minutes. The obtained deposit was determined as a microsome fraction, which was then suspended in a 25 mM tris-hydrochloric acid solution. The concentration of protein was measured quantitatively by a Bradford method and the concentration of protein was adjusted to 20 mg/ml by using the same solution. The resulting solution was stored at […].
# cholesterol biosynthesis = assay: Measurement of cholesterol biosynthesis inhibitive activity in a rat; type: in vivo; settings: male SD rat, oral, inhibition rate to control group; for inhibition in vivo at 3 mg/kg / Cholesterol biosynthesis inhibitive activity inhibition (%): dose 3 mg/kg
# Procedure: Measurement of Cholesterol Biosynthesis Inhibitive Activity in a Rat
# (I) An SPF grade male SD rat (4 weeks age, SLC) was bred for more than one week in a day-night-reversal room and subjected to an experiment made in the daytime. The compound dissolved in a 2% Tween 80 solution was administered (5 ml/kg) to the rat using an oral sonde. After one hour, a [1-^14C]Acetic acid, sodium salt (1.67-2.22 GBq/mmol, 37 MBq/ml, NEN) prepared by diluting to 1.85 MBq/ml by using physiological saline was intraabdominally administered (300 μ1/animal). After one hour, the rat was anesthetized by diethyl ether to carry out exsanguination from the aorta abdominalis. The collected blood was centrifuged at 3000 rpm for 10 minutes to prepare blood plasma.
# (II) 1 ml of 4N KOH and 1 ml of ethanol were added to 2 ml of the blood plasma, which was then incubated at 65° C. for one hour and there after, 3 ml of petroleum ether was added. The plasma was shaken for 30 minutes. After the water phase was separated from the organic phase by centrifugation, it was frozen at −80° C. and the radiative activity of the organic phase was measured using a liquid scintillation counter. Or the organic phase was evaporated to dryness using nitrogen gas and the residue was dissolved as a marker in 25 µl of chloroform containing squalene, farnesol and cholesterol. This sample was applied to a TCL plate (Merck) and developed using toluene and isopropyl ether (1:1) for 15 to 20 minutes. A band of cholesterol was cut from the plate to measure the radiative activity by using a liquid scintillation counter. The cholesterol biosynthesis inhibition activity was expressed by an inhibition rate (%) to a control group.
Compound,IC50 [1] [nM],inhibition in vivo at 3 mg/kg (cholesterol biosynthesis; 2 h) [%],also measured
3-[4-Benzyl-2-(3-pyridyl)-5-pyridyl]ethynyl-3-quinuclidinol [Example 18],25,,
"OC1(C#Cc2cnc(-c3ccc4c(c3)OCO4)cc2Cc2ccccc2)CN2CCC1CC2 (stereo not drawn) [Example 1, 3-[4-Benzyl-2-(3,4-methylenedioxyphenyl)-5-pyridyl]ethynyl-3-quinuclidinol]",10,,
"OC1(C#Cc2cnc(-c3ccccn3)cc2Cc2ccccc2)CN2CCC1CC2 (stereo not drawn) [Example 2, 3-[4-Benzyl-2-(2-pyridyl)-5-pyridyl]ethynyl-3-quinuclidinol]",20,,
"COCCOc1cc(Cc2ccccc2)c(C#CC2(O)CN3CCC2CC3)cn1 (stereo not drawn) [Example 6, 3-[4-Benzyl-2-(2-methoxyethoxy)-5-pyridyl]ethynyl-3-quinuclidinol]",,73,
"COC1CCN(c2ccc(C#CC3(O)CN4CCC3CC4)c(Cc3ccccc3)n2)CC1 (stereo not drawn) [Example 9, 3-[2-Benzyl-6-(4-methoxypiperidino)-3-pyridyl)ethynyl-3-quinuclidinol]",34,,
"CO[C@@H]1CN(c2ccc(C#C[C@@]3(O)CN4CCC3CC4)c(Cc3ccccc3)n2)C[C@H]1O [Example 10, (3R)-3-[2-Benzyl-6-[(3R,4R)-3-hydroxy-4-methoxypyrrolidine-1-yl]-3-pyridyl)ethynyl-3-quinuclidinol]",2,,
"COCCCNc1ccc(C#CC2(O)CN3CCC2CC3)c(Cc2ccccc2)n1 (stereo not drawn) [Example 11, 3-[2-Benzyl-6-(3-methoxypropylamino)-3-pyridyl)ethynyl-3-quinuclidinol]",,72,
"COCCOc1ccc(C#CC2(O)CN3CCC2CC3)c(Cc2ccccc2)n1 (stereo not drawn) [Example 12, 3-[2-Benzyl-6-(2-methoxyethyloxy)-3-pyridyl)ethynyl-3-quinuclidinol]",,78,
"COCCCOc1ccc(C#CC2(O)CN3CCC2CC3)c(Cc2ccccc2)n1 (stereo not drawn) [Example 13, 3-[2-Benzyl-6-(3-methoxypropyloxy)-3-pyridyl]ethynyl-3-quinuclidinol]",,87,
"OC1(C#Cc2cnc(-c3ccc4c(c3)OCO4)nc2Cc2ccccc2)CN2CCC1CC2 (stereo not drawn) [Example 19, 3-[4-Benzyl-2-(3,4-methylenedioxyphenyl)-5-pyrimidyl]ethynyl-3-quinuclidinol]",10,,
"CO[C@@H]1CN(c2ccc(C#C[C@@]3(O)CN4CCC3CC4)c(Cc3ccccc3)n2)C[C@H]1OC [Example 104, (3R)-3-[2-Benzyl-6-[(3R,4R)-3,4-dimethoxypyrrolidine-1-yl)-3-pyridyl]ethynyl-3-quinuclidinol]",6.7,,"inhibition in vivo at 2 mg/kg (cholesterol biosynthesis; 2 h, dose 2 mg/kg): 88%"
"O[C@]1(C#Cc2cc(Cl)c(N3CCC4(C3)OCCO4)nc2Cc2ccccc2)CN2CCC1CC2 [Example 119, (3R)-3-[2-Benzyl-5-chloro-6-(3,3-ethylenedioxypyrrolidine-1-yl)-3-pyridyl]ethynyl-3-quinuclidinol]",3.9,,
"CO[C@@H]1CN(c2ccc(C#C[C@@]3(O)CN4CCC3CC4)c(Cc3ccccc3)n2)C(=O)[C@@H]1OC [Example 123, (3R)-3-[2-Benzyl-6-[(3R,4R)-3,4-dimethoxy-2-pyrrolidinone-1-yl]-3-pyridyl]ethynyl-3-quinuclidinol]",,86,
"O=C1[C@H](O)CCN1c1ccc(C#C[C@@]2(O)CN3CCC2CC3)c(Cc2ccccc2)n1 [Example 142, (3R)-3-[2-Benzyl-6-[(3R)-3-hydroxy-2-pyrrolidinone-1-yl]-3-pyridyl]ethynyl-3-quinuclidinol]",5,82,
"CO[C@@H]1CCN(c2ccc(C#C[C@@]3(O)CN4CCC3CC4)c(Cc3ccccc3)n2)C1=O [Example 144, (3R)-3-[2-Benzyl-6-[(3R)-3-methoxy-2-pyrrolidinone-1-yl]-3-pyridyl]ethynyl-3-quinuclidinol]",2.6,,
"COCCOc1ccc(C#C[C@@]2(O)CN3CCC2CC3)c(Cc2ccccc2)n1 [Example 147, (3R)-3-[2-Benzyl-6-(2-methoxyethyl)oxy-3-pyridyl]ethynyl-3-quinuclidinol]",,87,
"COC(=O)CCC(=O)OCCCOc1ccc(C#CC2(O)CN3CCC2CC3)c(Cc2ccccc2)n1 (stereo not drawn) [Example 168, 3-[2-Benzyl-6-[3-(3-methoxycarbonylpropanoyloxy)propyl]oxy-3-pyridyl]ethynyl-3-quinclidinol]",,,Cholesterol biosynthesis inhibitive activity inhibition (%) (cholesterol biosynthesis): 89%
"C[C@H](NC(=O)OC(C)(C)C)C(=O)OCCCOc1ccc(C#CC2(O)CN3CCC2CC3)c(Cc2ccccc2)n1 (stereo partly drawn) [Example 169, 3-[2-Benzyl-6-[3-[N-(tert-butoxycarbonyl)aranyloxy]propyl]oxy-3-pyridyl]ethynyl-3-quinuclidinol]",,,Cholesterol biosynthesis inhibitive activity inhibition (%) (cholesterol biosynthesis): 92%
"O[C@]1(C#Cc2cnc(-c3ccc4c(c3)OCO4)cc2Cc2ccccc2)CN2CCC1CC2 [Example 180, (3R)-3-[4-Benzyl-2-(3,4-methylenedioxyphenyl)-5-pyridyl]ethynyl-3-quinuclidinol]",6.3,,
